target: T1, Dihydrofolate reductase (Bos taurus, UniProt P00376); test: Inhibition Assay
T1 sequence (P00376 whole entry): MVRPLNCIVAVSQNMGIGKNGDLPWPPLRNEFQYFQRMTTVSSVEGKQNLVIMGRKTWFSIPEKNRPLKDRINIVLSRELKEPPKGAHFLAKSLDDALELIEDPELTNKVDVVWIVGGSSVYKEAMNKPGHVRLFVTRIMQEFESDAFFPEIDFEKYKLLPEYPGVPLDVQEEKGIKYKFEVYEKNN
Description: Inhibition activity using bovine dihydrofolate reductase (DHFR).

Row | IC50 [nM] | SMILES
1 | 41.4 | CN(CCCON1C(N)=NC(N)=NC12CCCCC2)c1ccccc1 [1,3,5-Triazaspiro[5.5]undeca-1,3-diene-2,4-diamine, IIf]
2 | 1790 | NC1=NC2(CCCCC2)N(OCc2ccccc2)C(N)=N1 [1,3,5-Triazaspiro[5.5]undeca-1,3-diene-2,4-diamine, IIb]
3 | > 50000 | NC1=NC2(CCCCC2)N(Cc2ccccc2)C(N)=N1 [1,3,5-Triazaspiro[5.5]undeca-1,3-diene-2,4-diamine, IIa]
4 | 2.3 | NC1=NC2(CCCC2)N(OCCCOc2ccccc2)C(N)=N1
5 | 155 | NC1=NC2(CCCCC2)N(OCCCCOc2ccccc2)C(N)=N1 [1,3,5-Triazaspiro[5.5]undeca-1,3-diene-2,4-diamine, IIg]
6 | 42.2 | NC1=NC2(CCCC2)N(OCCCCOc2ccccc2)C(N)=N1 [6,8,10-Traiazaspiro[4.5]deca-6,8-diene-7,9-diamine, Ig]
7 | 14.9 | CN(CCCON1C(N)=NC(N)=NC12CCCC2)c1ccccc1 [6,8,10-Traiazaspiro[4.5]deca-6,8-diene-7,9-diamine, If]
8 | > 50000 | NC1=NC2(CCCC2)N(Cc2ccccc2)C(N)=N1 [6,8,10-Traiazaspiro[4.5]deca-6,8-diene-7,9-diamine, Ia]
9 | 31 | NC1=NC2(CCCC2)N(OCCc2ccccc2)C(N)=N1 [6,8,10-Traiazaspiro[4.5]deca-6,8-diene-7,9-diamine, Ic]
10 | 9.4 | NC1=NC2(CCCCC2)N(OCCc2ccccc2)C(N)=N1 [1,3,5-Triazaspiro[5.5]undeca-1,3-diene-2,4-diamine, IIc]
11 | 20.1 | NC1=NC2(CCCC2)N(OCCCc2ccccc2)C(N)=N1 [6,8,10-Traiazaspiro[4.5]deca-6,8-diene-7,9-diamine, Id]
12 | 31.9 | NC1=NC2(CCCCC2)N(OCCCc2ccccc2)C(N)=N1 [1,3,5-Triazaspiro[5.5]undeca-1,3-diene-2,4-diamine, IId]
13 | 6.9 | NC1=NC2(CCCCC2)N(OCCCOc2ccccc2)C(N)=N1

From BindingDB's records for doi:10.1111/j.1747-0285.2009.00860.x (National University of Singapore, 2009)
